Consider nine compounds from patent US20220106304A1, “Transcription Factor BRN2 Inhibitory Compounds as Therapeutics and Methods for Their Use” (The University of British Columbia, priority 2018, published 2022).

In one data set the target is T1, BRN2 (Homo sapiens, UniProt P20265).
T1 sequence (P20265 1-443): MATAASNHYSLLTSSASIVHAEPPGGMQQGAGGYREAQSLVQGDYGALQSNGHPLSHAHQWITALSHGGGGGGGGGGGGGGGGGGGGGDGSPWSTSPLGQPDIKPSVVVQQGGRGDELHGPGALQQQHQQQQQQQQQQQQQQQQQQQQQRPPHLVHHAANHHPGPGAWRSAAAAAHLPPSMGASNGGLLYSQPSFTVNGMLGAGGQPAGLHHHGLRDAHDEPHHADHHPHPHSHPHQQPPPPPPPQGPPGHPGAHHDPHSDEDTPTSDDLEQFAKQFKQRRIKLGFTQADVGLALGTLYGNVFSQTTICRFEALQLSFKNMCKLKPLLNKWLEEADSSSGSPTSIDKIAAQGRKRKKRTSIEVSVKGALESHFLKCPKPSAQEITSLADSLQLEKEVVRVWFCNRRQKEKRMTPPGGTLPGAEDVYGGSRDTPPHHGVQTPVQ
Kind of data set: cell-based. The settings on record: negative = activation; for inhibition at 10 µM: read-out: % BRN2 Inhibition (10 μM), 10 μM compound, 24 hours, 42D^ENZR cells stably expressing BRN2-luciferase reporter; for inhibition at 30 µM: read-out: % BRN2 Inhibition (30 μM), 30 μM compound, 24 hours, 42D^ENZR cells stably expressing BRN2-luciferase reporter. For orientation: A reporter such as luciferase makes a cellular process visible.

Data set [1] is described as follows: Liver microsome metabolic stability, MLM. The following applies: MLM (single value or second of two), 1 μM compound, 0.25 mg/mL protein; for Met Stab % (60 mins HLM/MLM): percent remaining at 60 min, 1 mM NADPH; for half-life at 1 µM: mouse, liver microsomes, pH 7.4, read-out: T1/2 in (mins HLM/MLM). It counts as in vitro ADME. The procedure, abridged: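 Compound (1 μM) incubated at 37 °C with mouse or human liver microsomes (0.25 mg/mL) in 50 mM phosphate pH 7.4 with 1 mM NADPH; samples quenched at 0–60 min. Parent loss by LC-MS/MS gives t½ (0.693/k) and CL'int scaled by 45 mg protein/g liver.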
On the technique in general: Liver microsomes are a subcellular fraction often used to study metabolism.

For data set [2], the system named is 42D^ENZR cells vs 16D^CRPC cells. Kind of data set: Cell proliferation specificity, 42D^ENZR cells vs 16D^CRPC cells. It counts as cell-based. The following applies: 42D cells express BRN2, 16D cells do not; some also LNCaP; result in words. How it is done:
(§1) Plate 42DENZR (˜7000 cells per well) and 16D^CRPC (˜5000 cells per well) cells in 96 well plate with a volume of 100 μL per well. • 2. Next day 1 mL aliquots of media are combined with 3× the desired concentration of compounds. The aliquots are vortexed and 50 μL of each 3× concentration is added to the 100 μL of media in each well to give the ix desired concentration.
(§2) The following are the desired concentrations:
(§3) 0, 10 nM, 100 nM, 500 nM, 1 μM, 2.5 μM, 5 μM, 10 μM, 15 μM, […], 30 μM. • 3. Approximately 72 hours later, 17 μL of 10% Glutaraldehyde is added to each well and plates are placed on a shaker for 20-30 minutes. • 4. Media is washed off the fixed cells by slow submersion in a container of water. Then the water is removed by tapping the plate upside down. • 5. 75 μL of Crystal Violet™ solution is added into the 96 well plates and placed on a shaker for ˜30 minutes. • 6. Media is washed off the fixed cells by repeated slow submersion in a container of water and the plates are allowed to dry over-night. • 7. Next day, 75 μL of Sorensen Solution is accurately pipetted into each well. The plates placed on a shaker for ˜30 minutes. • 8. Absorbance is measured in the plate at 590 nm.
Compounds that Show Specificity Towards 42D^ENZR Cells Vs 16D^CRPC Cells Progress to Step 4.
Where data is not available “na” is inserted.

The test system of another data set is 42D^ENZR cells. Kind of data set: Cell proliferation (crystal violet), BRN2 expressing 42D^ENZR cells. It counts as cell-based. The settings on record: 42D cells, approximately 72 hours. The procedure: as §1, §2, §3

As to `c1coc(-c2ncc(-c3cc4ccccc4o3)s2)c1` [VPC-18-90, 5-(benzofuran-2-yl)-2-(furan-2-yl)thiazole], at BRN2, the inhibition (commonly the percentage by which the read-out fell short of the control) at 10 µM was found to be 80% and the inhibition at 30 µM worked out at 92%. In data set [1], the “Met Stab % (60 mins HLM/MLM)” value was determined as 0% and the half-life at 1 µM was 8 min. The specificity entry in data set [2] was “VPC-18-90 (specific)”.
`Clc1ccc2cc(-c3csc(-c4ccc[nH]4)n3)oc2c1` [VPC-18-94, 4-(6-chlorobenzofuran-2-yl)-2-(1H-pyrrol-2-yl)thiazole]: at BRN2, the inhibition at 10 µM amounted to 79.6% and the inhibition at 30 µM stood at 86.9%. Moreover, in data set [1], the “Met Stab % (60 mins HLM/MLM)” value came to 21% and the half-life at 1 µM amounted to 27 min. For the same compound, in data set [2], the specificity entry is “VPC-18-94 (specific no effect on LNCaP and 16D)”.
Turning to `FC(F)(F)c1ccc2cc(-c3csc(-c4ccoc4)n3)oc2c1` [VPC-18-104, 2-(furan-3-yl)-4-(6-(trifluoromethyl)benzofuran-2-yl)thiazole], on BRN2, the inhibition at 10 µM amounted to 87.1% and the inhibition at 30 µM worked out at 94.2%. In data set [1], the “Met Stab % (60 mins HLM/MLM)” value turned out to be 1% and the half-life at 1 µM was determined as 10 min. Also, the specificity result in data set [2] is listed as “VPC-18- 104 (specific 42D not 16D)”.
For `Clc1ccc2cc(-c3csc(-c4ccoc4)n3)oc2c1` [VPC-18-105, 4-(6-chlorobenzofuran-2-yl)-2-(furan-3-yl)thiazole], at BRN2, the inhibition at 10 µM amounted to 79.5% and the inhibition at 30 µM turned out to be 92%. In addition, in data set [1], the “Met Stab % (60 mins HLM/MLM)” value was 1% and the half-life at 1 µM came to 10 min. Also, the specificity result in data set [2] is “VPC-18- 105 (specific 42D not 16D)”.
Take `FC(F)(F)c1ccc2cc(-c3csc(-c4ccc[nH]4)n3)oc2c1` [VPC-18-108]: at BRN2, the inhibition at 10 µM is 84.4% and the inhibition at 30 µM was determined as 92.6%. Further, in data set [1], the “Met Stab % (60 mins HLM/MLM)” value was determined as 15% and the half-life at 1 µM is 31 min. Besides, in data set [2], the specificity entry was “VPC-18- 108 (specific)”.
For `Cc1ccc2cc(-c3csc(-c4ccco4)n3)oc2c1` [VPC-18-110, 2-(furan-2-yl)-4-(6-methylbenzofuran-2-yl)thiazole], at BRN2, the inhibition at 10 µM stood at 93.5% and the inhibition at 30 µM stood at 98.6%. Also, in data set [1], the “Met Stab % (60 mins HLM/MLM)” value is listed as 1% and the half-life at 1 µM was 10 min. Also, the specificity entry in data set [2] is listed as “VPC-18- 110 (specific)”.
`Clc1ccc2cc(-c3csc(-c4cc[nH]c4)n3)oc2c1` [VPC-18-115]: at BRN2, the inhibition at 10 µM worked out at 98% and the inhibition at 30 µM was 99%. In addition, in data set [1], the “Met Stab % (60 mins HLM/MLM)” value is given as 18% and the half-life at 1 µM stood at 22 min. In addition, the specificity entry in data set [2] was “VPC-18- 115 (specific)”.
For the compound `Clc1ccc2cc(-c3cccc(-c4ccc[nH]4)n3)oc2c1` [VPC-18-149], in the data set with 42D^ENZR cells, the 50% inhibitory concentration (IC50) (commonly the concentration at which inhibition is half-maximal) was 1 µM. On BRN2, the inhibition at 10 µM is 94.6% and the inhibition at 30 µM is 96.2%. Besides, in data set [1], the “Met Stab % (60 mins HLM/MLM)” value was 21% and the half-life at 1 µM is 30 min. In data set [2], the specificity result is reported as “not 16D”.
`Cc1c(-c2csc(-c3ccc[nH]3)n2)oc2cc(Cl)ccc12` [VPC-18-155]: in the data set with 42D^ENZR cells, the IC50 was found to be 10 µM. Also, in data set [1], the “Met Stab % (60 mins HLM/MLM)” value worked out at 24% and the half-life at 1 µM came out at 31 min. Moreover, the specificity entry in data set [2] was “not 16D”.
